# Values quoted from earlier work as cited in patent publication US20070128276A1 (PANACEA BIOTEC LTD., priority 1999, published 2007).
# What was measured:
# prostaglandin synthesis = conditions: in vitro
# yeast-induced fever = conditions: rats with yeast-induced fever
# [1] = animal studies
# [2] = system: renal prostaglandin synthesis; conditions: rats
smiles,measurement,setting,value
CS(=O)(=O)Nc1ccc([N+](=O)[O-])cc1Oc1ccccc1 [Nimesulide],inhibition of prostaglandin synthesis,prostaglandin synthesis,relatively weak inhibitor
same,antipyretic potency versus reference drugs,yeast-induced fever,"superior antipyretic potency to indomethacin, ibuprofen, aspirin and paracetamol (acetaminophen)"
same,ulcerogenicity versus reference NSAIDs,[1],"less ulcerogenic than aspirin, indomethacin, naproxen, piroxicam and ibuprofen"
same,effect on renal prostaglandin synthesis,[2],little effect
same,oral drug absorption,,nearly complete
same,effect of concomitant food on absorption,"oral, concomitant administration of food","may decrease the rate, but not the extent of absorption"
same,bound to plasma proteins,plasma proteins,99%
